Measurements from patent US20100168102A9, “Amide Derivatives as Kinase Inhibitors” (Devgen NV, priority 2005, published 2010).
Read-outs that look alike come from different tables or passages of the source.

Legend:
[1] = target: T1, PKC epsilon (Homo sapiens, UniProt Q02156); test: Biochemical assay for PKC epsilon (fluorescence polarization, Protein Kinase C Assay Kit, Red); settings: read-out: IC50 μM PKCε
T1 construct: purchased Invitrogen P2282
T1 sequence (Q02156 1-737): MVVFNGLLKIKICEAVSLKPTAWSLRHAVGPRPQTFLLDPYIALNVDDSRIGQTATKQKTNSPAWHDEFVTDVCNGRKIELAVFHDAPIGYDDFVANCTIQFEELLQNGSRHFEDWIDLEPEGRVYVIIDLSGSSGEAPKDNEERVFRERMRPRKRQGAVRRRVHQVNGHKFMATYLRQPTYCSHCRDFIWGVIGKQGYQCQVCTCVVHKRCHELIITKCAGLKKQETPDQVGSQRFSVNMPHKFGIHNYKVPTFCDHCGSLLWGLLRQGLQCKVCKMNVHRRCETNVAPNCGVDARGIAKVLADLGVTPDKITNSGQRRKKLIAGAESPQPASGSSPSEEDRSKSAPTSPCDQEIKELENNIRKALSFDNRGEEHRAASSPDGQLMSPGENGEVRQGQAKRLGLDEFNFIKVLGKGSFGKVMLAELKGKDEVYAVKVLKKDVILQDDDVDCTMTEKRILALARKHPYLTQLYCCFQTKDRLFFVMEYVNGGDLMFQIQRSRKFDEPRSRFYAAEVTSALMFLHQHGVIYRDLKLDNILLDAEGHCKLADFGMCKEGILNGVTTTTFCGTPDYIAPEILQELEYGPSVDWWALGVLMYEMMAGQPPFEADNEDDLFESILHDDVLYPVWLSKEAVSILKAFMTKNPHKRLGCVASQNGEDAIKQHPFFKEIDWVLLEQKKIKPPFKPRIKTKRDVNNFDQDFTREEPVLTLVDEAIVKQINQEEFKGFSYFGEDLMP
Summary of the method: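 PKC epsilon at 10 ng/ml final was preincubated 30 min at room temperature with compound in HEPES pH 7.4 with DTT and Triton X-100. ATP/protein substrate was then added in buffer with MgCl2 and CaCl2 for 80 min. The reaction was stopped with EDTA, phosphorylation was detected by fluorescence polarization with rhodamine tracer and anti-phosphoserine antibody, and IC50 values came from curve fits.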

[2] = target: T2, human ROCKα/ROCKII mix (Homo sapiens, UniProt O75116); test: Biochemical assay for ROCK (fluorescence polarization, ROCK IMAP Kit)
T2 construct: purchased Upstate Biotechnology 14-451
T2 sequence (O75116 11-552 limits assumed): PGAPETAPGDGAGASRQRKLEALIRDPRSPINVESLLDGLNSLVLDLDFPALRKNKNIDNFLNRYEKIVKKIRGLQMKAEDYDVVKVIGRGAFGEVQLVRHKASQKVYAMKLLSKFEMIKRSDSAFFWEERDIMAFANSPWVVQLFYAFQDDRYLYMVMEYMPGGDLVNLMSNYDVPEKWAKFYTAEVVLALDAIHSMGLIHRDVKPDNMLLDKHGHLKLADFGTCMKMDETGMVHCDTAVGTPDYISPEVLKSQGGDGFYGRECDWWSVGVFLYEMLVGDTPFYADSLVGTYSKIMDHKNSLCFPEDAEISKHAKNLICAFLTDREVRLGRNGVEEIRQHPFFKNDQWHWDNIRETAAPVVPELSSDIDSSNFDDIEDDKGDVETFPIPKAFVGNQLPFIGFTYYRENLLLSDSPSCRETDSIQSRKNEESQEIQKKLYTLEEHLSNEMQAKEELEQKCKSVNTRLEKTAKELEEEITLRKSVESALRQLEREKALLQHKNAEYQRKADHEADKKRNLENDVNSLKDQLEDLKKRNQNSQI

[3] = Table 2, compounds of Formula XIII
[4] = compounds of Formula XIV, Table 3

| Compound | IC50 [1, 3] [µM] | IC50 [2, 3] [µM] | IC50 [1] [µM] | IC50 [2] [µM] | also measured |
| --- | --- | --- | --- | --- | --- |
| NC(CNC(=O)C1CCc2ccccc2C1)c1ccc(C(=O)Nc2ccncc2)cc1 (stereo not drawn) [Compound 164, 1,2,3,4-Tetrahydro-naphtalene-2-carboxylic acid {2-amino-2-[4-(pyridin-4-ylcarbamoyl)-phenyl]-ethyl}-amide] | 0.5 to 5 | 0.5 to 5 | – | – | – |
| 4-[1-amino-2-(N′-butyl- hydrazinocarbonyl)-ethyl]-N- pyridin-4-yl-benzamide [Compound 324] | – | – | – | – | IC50 [1, 4]: 0.5 to 5 µM; IC50 [2, 4]: 0.05 to 0.5 µM |
| 4-[1-amino-2-(cyclopropyl- methylcarbamoyl)-ethyl]-N- pyridin-4-yl-benzamide [Compound 171] | – | – | – | – | IC50 [1, 4]: 0.5 to 5 µM; IC50 [2, 4]: 0.05 to 0.5 µM |
| NC(CNC(=O)c1ccccc1-c1ccccc1)c1ccc(C(=O)Nc2ccncc2)cc1 (stereo not drawn) [Compound 87, Biphenyl-2-carboxylic acid {2-amino-2-[4-(pyridin-4-ylcarbamoyl)-phenyl]-ethyl}-amide] | 0.5 to 5 | 0.5 to 5 | – | – | – |
| NC(CC(=O)NC1CCCc2ccccc21)c1ccc(C(=O)Nc2ccncc2)cc1 (single isomer, unassigned) [Compound 222] | – | – | – | – | IC50 [1, 4]: 5 to 50 µM; IC50 [2, 4]: 0.05 to 0.5 µM |
| NC(c1ccc(C(=O)Nc2ccncc2)cc1)C1CCCN1C(=O)C1(c2ccc(F)cc2)CCCC1 (stereo not drawn) [Compound 576, 4-(Amino-{1-[1-(4-fluoro-phenyl)-cyclopentanecarbonyl]-pyrrolidin-2-yl}-methyl)-N-pyridin-4-yl-benzamide] | – | – | 0.5 to 5 | 0.5 to 5 | – |
| NC(CNC(=O)C1CCCCC1)c1ccc(C(=O)Nc2ccncc2)cc1 (stereo not drawn) [Compound 43, 4-[1-Amino-2-(cyclohexanecarbonyl-amino)-ethyl]-N-pyridin-4-yl-benzamide] | 5 to 50 | 0.5 to 5 | – | – | – |
| CN(CC(N)c1ccc(C(=O)Nc2ccncc2)cc1)C(=O)C1(c2ccc(Cl)cc2Cl)CC1 (stereo not drawn) [Compound 495, 4-(1-Amino-2-{[1-(2,4-dichloro-phenyl)-cyclopropanecarbonyl]-methyl-amino}-ethyl)-N-pyridin-4-yl-benzamide] | – | – | 5 to 50 | 0.5 to 5 | – |
| CN(CC(N)c1ccc(C(=O)Nc2ccncc2)cc1)C(=O)C1(c2ccc(Cl)c(Cl)c2)CC1 (stereo not drawn) [Compound 493, 4-(1-Amino-2-{[1-(3,4-dichloro-phenyl)-cyclopropanecarbonyl]-methyl-amino}-ethyl)-N-pyridin-4-yl-benzamide] | – | – | 5 to 50 | 0.5 to 5 | – |
| NC(CNC(=O)C1CCOc2ccccc21)c1ccc(C(=O)Nc2ccncc2)cc1 (stereo not drawn) [Compound 390, Chroman-4-carboxylic acid {2-amino-2-[4-(pyridin-4-ylcarbamoyl)-phenyl]-ethyl}-amide] | 0.05 to 0.5 | 0.05 to 0.5 | – | – | – |
| NC(CNC(=O)Cc1ccc(-c2ccccc2)cc1)c1ccc(C(=O)Nc2ccncc2)cc1 (stereo not drawn) [Compound 146, 4-[1-Amino-2-(2-biphenyl-4-yl-acetylamino)-ethyl]-N-pyridin-4-yl-benzamide] | 5 to 50 | 0.5 to 5 | – | – | – |
| NC(CNC(=O)C1CC1)c1ccc(C(=O)Nc2ccncc2)cc1 (stereo not drawn) [Compound 39, 4-[1-Amino-2-(cyclopropanecarbonyl-amino)-ethyl]-N-pyridin-4-yl-benzamide] | 0.5 to 5 | 0.5 to 5 | – | – | – |
| CN(CC(N)c1ccc(C(=O)Nc2ccncc2)cc1)C(=O)Cc1ccc(F)cc1F (stereo not drawn) [Compound 479, 4-(1-Amino-2-{[2-(2,4-difluoro-phenyl)-acetyl]-methyl-amino}-ethyl)-N-pyridin-4-yl-benzamide] | – | – | 5 to 50 | 0.5 to 5 | – |
| CN(CC(N)c1ccc(C(=O)Nc2ccncc2)cc1)C(=O)C1(c2ccc(F)cc2F)CC1 (stereo not drawn) [Compound 481, 4-(1-Amino-2-{[1-(2,4-difluoro-phenyl)-cyclopropanecarbonyl]-methyl-amino}-ethyl)-N-pyridin-4-yl-benzamide] | – | – | 5 to 50 | 0.5 to 5 | – |
| CN(CC(N)c1ccc(C(=O)Nc2ccncc2)cc1)C(=O)Cc1ccc(Cl)cc1F (stereo not drawn) [Compound 502, 4-(1-Amino-2-{[2-(4-chloro-2-fluoro-phenyl)-acetyl]-methyl-amino}-ethyl)-N-pyridin-4-yl-benzamide] | – | – | 5 to 50 | 0.5 to 5 | – |
